Patent US5198433A, “Lactamimides as calcium antagonists” (Merrell Dow Pharmaceuticals Inc., priority 1992, dated 1993)

How the values were obtained:
[1] = target: [^3 H]d-cis-diltiazem binding to rat whole brain membranes (calcium ion-channel protein); experiment: [^3 H]d-cis-Diltiazem binding assay (displacement from rat whole brain membranes); design: species or system rat (male Sprague-Dawley); conditions: for pKi: Table 1, displacement of 3H diltiazem, rat brain membranes, n = 3, Cheng & Prusoff; for IC50: ligand […]
Procedure: The whole brain from male Sprague-Dawley rats (200-300 g) was dissected and homogenized in cold 50 mM Tris-HCl buffer (pH 7.4) for 2 x 30 second periods by Polytron (Brinkmann, setting No. 5). The homogenate was washed 2 times (48,000 ×g for 10 minutes, 4° C.) with intermittent resuspension of the pellet in fresh buffer. The final pellet was resuspended to an original tissue concentration of 100 mg/ml in Tris-HCl buffer. […] The reaction was terminated by rapid filtration under a vacuum through 0.05% polyethylenimine-pretreated Whatman GF/B glass fiber filters. Filters were immediately washed 2 times with 4 ml of cold Tris-HCl buffer. Pretreatment of the filters with 0.05% polyethylenimine served to eliminate [^3 H]d-cis-diltiazem binding to the filter. The filters were dried and the radioactivity in the filters was extracted overnight in scintillation fluid.

[2] = target: T1, K^+ -depolarized guinea pig ileum or taenia (Cavia porcellus); experiment: Antagonism of Ca^++ -induced contractions of K^+ -depolarized guinea pig taenia or ileum; format: cell-based; conditions: for pA2: Table 1, guinea pig ileum or taenia, K^+ -depolarized, Ca^++ -induced contraction, Arunlakshana & Schild; for mean pA2 value (95% confidence interval), Schild plot / mean slope (±S.D.) of Schild plot: FIG. 6, 40 mM K^+ -depolarized guinea pig ileum
T1 construct: pieces of ileum, 2 cm in length, from male guinea pigs (200-400 g) were set up in isolated organ baths; from tissue; host or cells: strips of taenia from the caecum or pieces of ileum of male guinea pigs
Procedure: Strips of taenia from the caecum or pieces of ileum, 2 cm in length, from male guinea pigs (200-400 g) were set up in isolated organ baths in Ca^++ -free K^+ Tyrode's solution (mM NaCl 137, KCl 40, NaH2 PO4 0.4, NaHCO3 11.9, glucose 5.5) and gassed with 95% O2, 5% CO2 at 37° C. Contractions were measured with isotonic transducers with a 1 g load. Cumulative dose-response curves were obtained. Tissues were then washed and incubated with the compounds for 20-25 minutes and then Ca^++ concentration response curves re-established. […] Dose ratios were determined graphically at ED50 values from the Ca^++ dose-response curve and Schild plots were constructed to determine pA2 value using inverse regression line analysis. Alternatively, when only one concentration of an antagonist was used, pA2 values were calculated according to the method of J. M. Van Rossum, Arch. Int. Pharmacodyn Ther. 143: 299-330 (1963).

[3] = tested on: calcium ion-channel protein; conditions: [^3 H]nitrendipine as the ligand; cited from earlier work
[4] = target: T2, [^3 H]nitrendipine binding to rat heart membranes (calcium ion-channel protein) (Rattus norvegicus, UniProt P22002); experiment: [^3 H]Nitrendipine binding assay (enhancement of binding to rat heart membranes); design: species or system rat (male Sprague-Dawley); conditions: ligand 0.1 nM, mean ± SEM; for activity at 1 µM: 10^-6 M; for activity at 0.1 µM: 10^-7 M
T2 construct: Membranes were prepared from the hearts of male Sprague-Dawley rats; from tissue; host or cells: heart membranes of male Sprague-Dawley rats
T2 sequence (P22002 whole entry, other chains not shown): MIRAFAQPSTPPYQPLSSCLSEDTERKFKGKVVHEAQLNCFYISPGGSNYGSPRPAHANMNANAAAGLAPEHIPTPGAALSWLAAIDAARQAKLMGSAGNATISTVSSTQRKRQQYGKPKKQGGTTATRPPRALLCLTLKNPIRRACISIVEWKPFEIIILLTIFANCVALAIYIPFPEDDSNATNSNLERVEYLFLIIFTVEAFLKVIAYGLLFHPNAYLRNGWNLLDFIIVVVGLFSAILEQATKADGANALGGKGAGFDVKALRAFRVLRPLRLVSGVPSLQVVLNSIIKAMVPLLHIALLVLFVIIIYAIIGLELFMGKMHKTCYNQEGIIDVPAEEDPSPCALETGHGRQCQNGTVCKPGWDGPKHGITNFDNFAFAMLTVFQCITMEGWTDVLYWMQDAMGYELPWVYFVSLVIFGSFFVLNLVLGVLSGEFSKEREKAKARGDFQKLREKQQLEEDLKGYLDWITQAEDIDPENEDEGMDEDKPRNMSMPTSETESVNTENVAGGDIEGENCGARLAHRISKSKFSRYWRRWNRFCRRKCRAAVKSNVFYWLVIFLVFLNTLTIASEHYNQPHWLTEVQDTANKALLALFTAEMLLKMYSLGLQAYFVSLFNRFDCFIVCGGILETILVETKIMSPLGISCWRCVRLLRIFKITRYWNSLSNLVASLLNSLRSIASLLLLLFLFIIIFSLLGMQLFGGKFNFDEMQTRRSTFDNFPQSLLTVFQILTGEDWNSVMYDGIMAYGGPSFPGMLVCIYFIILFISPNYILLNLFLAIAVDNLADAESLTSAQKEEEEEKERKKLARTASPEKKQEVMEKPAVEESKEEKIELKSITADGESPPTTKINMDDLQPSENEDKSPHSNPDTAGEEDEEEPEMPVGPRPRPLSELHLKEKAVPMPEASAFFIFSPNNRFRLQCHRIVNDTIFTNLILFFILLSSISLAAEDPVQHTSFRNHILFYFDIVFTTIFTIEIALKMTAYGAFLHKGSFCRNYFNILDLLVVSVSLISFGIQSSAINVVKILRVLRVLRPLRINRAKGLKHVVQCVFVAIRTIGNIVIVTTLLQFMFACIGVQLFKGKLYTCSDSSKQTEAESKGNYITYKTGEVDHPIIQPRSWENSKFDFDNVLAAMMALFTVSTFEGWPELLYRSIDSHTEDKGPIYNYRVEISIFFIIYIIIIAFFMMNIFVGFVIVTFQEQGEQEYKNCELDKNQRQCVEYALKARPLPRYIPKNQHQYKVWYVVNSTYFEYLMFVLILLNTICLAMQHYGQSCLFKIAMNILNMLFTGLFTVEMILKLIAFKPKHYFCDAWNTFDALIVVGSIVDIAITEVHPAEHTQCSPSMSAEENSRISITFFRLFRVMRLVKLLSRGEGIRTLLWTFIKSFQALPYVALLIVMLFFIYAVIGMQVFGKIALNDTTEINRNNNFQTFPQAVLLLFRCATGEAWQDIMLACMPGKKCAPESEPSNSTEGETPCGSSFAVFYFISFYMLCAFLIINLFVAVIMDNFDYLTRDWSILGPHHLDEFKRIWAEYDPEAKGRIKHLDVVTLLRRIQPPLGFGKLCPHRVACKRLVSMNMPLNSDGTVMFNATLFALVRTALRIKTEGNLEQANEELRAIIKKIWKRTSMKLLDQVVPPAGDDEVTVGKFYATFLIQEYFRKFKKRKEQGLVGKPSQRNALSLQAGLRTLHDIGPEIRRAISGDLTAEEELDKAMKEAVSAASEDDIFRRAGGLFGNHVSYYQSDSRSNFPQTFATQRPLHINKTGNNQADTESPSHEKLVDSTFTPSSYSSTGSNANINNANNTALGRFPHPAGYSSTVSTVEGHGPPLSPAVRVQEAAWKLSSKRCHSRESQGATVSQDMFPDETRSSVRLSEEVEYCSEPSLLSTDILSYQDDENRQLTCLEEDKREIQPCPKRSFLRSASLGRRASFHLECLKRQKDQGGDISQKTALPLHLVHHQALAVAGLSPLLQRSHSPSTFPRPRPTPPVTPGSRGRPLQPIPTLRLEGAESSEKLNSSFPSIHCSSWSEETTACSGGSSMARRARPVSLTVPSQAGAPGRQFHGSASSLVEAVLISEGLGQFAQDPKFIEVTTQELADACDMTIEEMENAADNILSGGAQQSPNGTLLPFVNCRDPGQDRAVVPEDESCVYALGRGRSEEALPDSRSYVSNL
T2 sequence (P54290 25-945 partner limits assumed, other chains not shown): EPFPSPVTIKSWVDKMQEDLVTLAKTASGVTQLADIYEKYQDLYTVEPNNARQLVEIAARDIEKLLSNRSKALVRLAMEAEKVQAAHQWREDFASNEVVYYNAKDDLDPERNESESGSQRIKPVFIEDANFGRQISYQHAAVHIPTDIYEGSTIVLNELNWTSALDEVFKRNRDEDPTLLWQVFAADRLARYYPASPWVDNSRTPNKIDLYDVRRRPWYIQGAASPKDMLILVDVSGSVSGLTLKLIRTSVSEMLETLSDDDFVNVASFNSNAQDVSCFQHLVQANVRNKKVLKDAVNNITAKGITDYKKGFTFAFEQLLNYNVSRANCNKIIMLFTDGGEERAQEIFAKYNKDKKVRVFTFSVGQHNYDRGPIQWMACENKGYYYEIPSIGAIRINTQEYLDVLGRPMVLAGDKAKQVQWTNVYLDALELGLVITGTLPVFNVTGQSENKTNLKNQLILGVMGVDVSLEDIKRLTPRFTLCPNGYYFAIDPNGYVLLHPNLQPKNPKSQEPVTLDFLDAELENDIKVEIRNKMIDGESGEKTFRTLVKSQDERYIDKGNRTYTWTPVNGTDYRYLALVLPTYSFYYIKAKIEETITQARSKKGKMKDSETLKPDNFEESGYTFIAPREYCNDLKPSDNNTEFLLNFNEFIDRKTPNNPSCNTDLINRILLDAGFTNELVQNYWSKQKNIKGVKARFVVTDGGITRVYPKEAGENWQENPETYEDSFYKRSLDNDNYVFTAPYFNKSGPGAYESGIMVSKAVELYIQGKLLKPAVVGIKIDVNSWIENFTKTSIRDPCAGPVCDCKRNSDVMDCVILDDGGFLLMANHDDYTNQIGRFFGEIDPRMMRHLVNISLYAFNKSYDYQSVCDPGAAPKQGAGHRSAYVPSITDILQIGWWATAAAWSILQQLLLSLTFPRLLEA
T2 sequence (P54290 946-1091 partner limits assumed, other chains not shown): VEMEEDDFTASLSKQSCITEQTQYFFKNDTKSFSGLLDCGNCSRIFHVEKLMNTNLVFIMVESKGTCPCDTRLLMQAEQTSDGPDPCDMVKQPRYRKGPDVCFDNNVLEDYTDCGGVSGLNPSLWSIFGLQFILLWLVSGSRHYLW
Procedure: Membranes were prepared from the hearts of male Sprague-Dawley rats and [^3 H]nitrendipine binding was conducted as described in detail by H. R. Lee, et al., J. Pharmacol Exp. Ther. 233:611-616, (1985), as modified by F. J. Ehlert, et al., Biochem. Biophys. Rec. Common. 104:937-943, (1982). The ability of compounds tested at 10^-6 and 10^-7 M to enhance [^3 H]nitredepine binding was taken as indicative of diltiazem-like calcium antagonistic properties.
Values are the mean ± SEM of single experiments run in triplicate at
the concentrations of drugs indicated. Ligand concentration was 0.1 nM an
control specific binding was 49.6 ± 1.7 fmol/mg protein.

SMILES: c1ccc(C(N=C2CCCCCCN2)C23CC4CC(CC(C4)C2)C3)cc1 (stereo not drawn) [Test Compound 8, 2-[[α-(1-adamantanyl)benzyl]imino]octahydroazocine]
- pKi ([1]; 25° C.): 6.72
- pA2 [2]: 6.63

SMILES: COc1cc(CN=C2NCCC2=Cc2ccc(C)cc2)ccc1O [Test Compound 19, 2-methoxy-4-[[[3-[(4-methylphenyl)methylene]-2-pyrrolidinyliden]amino]methyl]phenol]
- IC50 ([1]; 25° C.): 1260 ± 90 nM
- IC50 ([1]; 37° C.): 1900 ± 230 nM

SMILES: CCCC(CN=C1CCCCCN1)(c1ccccc1)c1ccccc1 [Test Compound 22, hexahydro-2-[(2,2-diphenylpentyl)imino]azepine]
- pA2 ([2]; listed as 22): 6.31

SMILES: c1ccc([C@H]2CCC[C@H]2N=C2CCCCCCCN2)cc1 (relative stereo) [Test Compound 14, octahydro-2-[(cis-2-phenylcyclopentyl)imino]azonine]
- pKi ([1]; 25° C.): 5.26
- pA2 [2]: 4.84

SMILES: C1CCNC(=N[C@@H]2CCC[C@@H]2C2CCCCC2)CC1 (relative stereo) [Test Compound 12, 2-[(cis-2-cyclohexylcyclopentyl)imino]hexahydroazepine]
- pKi ([1]; 25° C.): 5.54
- pA2 [2]: 5.54

SMILES: CCCC(CN=C1CCCCN1)(c1ccccc1)c1ccccc1 [Test Compound 7, 2-[(2,2-diphenylpentyl)imino]piperidine]
- pA2 ([2]; listed as 7): 6.15

SMILES: CCCC(CN=C1CCCCCCN1)(c1ccccc1)c1ccccc1 [Test Compound 24, 2-[(2,2-diphenylpentyl)imino]octahydroazocine]
- pA2 ([2]; listed as 24): 6.63

SMILES: c1ccc(C(CCN=C2CCCCCN2)c2ccccc2)cc1 [Test Compound 20, hexahydro-2-[3,3-diphenylpropylimino)azepine]
- pA2 [2]: 6.19

SMILES: CCCC(CN=C1CCCCCN1)(c1ccccc1)c1ccccc1 [Test Compound 6, hexahydro-2-[(2,2-diphenylpentyl)imino]azepine]
- pA2 ([2]; listed as 6): 6.64

SMILES: CCCCOc1ccc(C(N=C2CCCCCN2)c2ccccc2)cc1 (stereo not drawn) [Test Compound 9, 2-[(p-butoxy-α-phenylbenzyl)imino]hexahydroazepine]
- pKi ([1]; 25° C.): 6.17
- pA2 [2]: 5.86

SMILES: CC(N=C1CCCCCN1)c1cccc2ccccc12 (single isomer, unassigned; (+)) [Test Compound 25, (+)-hexahydro-N-[1-(1-naphthalenyl)ethyl]2H-azepin-2-imine]
- pA2 [2]: 5.47

SMILES: CC(N=C1CCCCCN1)c1cccc2ccccc12 (single isomer, unassigned; (-)) [Test Compound 26, (-)-hexahydro-N-[1-(1-naphthalenyl)ethyl]2H-azepin-2-imine]
- pA2 [2]: 5.18

SMILES: COc1ccc(CCN(C)CCCC(C#N)(c2ccc(OC)c(OC)c2)C(C)C)cc1OC (stereo not shown) [verapamil]
- effect on [^3 H]nitrendipine binding [3]: displaces [^3 H]nitrendipine in a non-competitive manner

SMILES: c1ccc([C@H]2CCC[C@H]2N=C2CCCCCN2)cc1 (relative stereo) [Test Compound 15, hexahydro-2-[(cis-2-phenylcyclopentyl)imino]azepine]
- pKi ([1]; 25° C.): 4.16

SMILES: FC(F)(F)c1cccc(C(N=C2CCCCCN2)c2ccccc2)c1 (stereo not shown) [Test Compound 11, hexahydro-N-[phenyl[3-(trifluoromethyl)phenyl]methyl]-2H-azepin-2-imine]
- pKi ([1]; 25° C.): 5.92
- pA2 [2]: 5.60

SMILES: CCCC(CN=C1CCCCCCCCCCCN1)(c1ccccc1)c1ccccc1 [Test Compound 1, N-(2,2-diphenylpentyl)azacyclotridecan-2-imine]
- pKi ([1]; 25° C.): 6.49
- activity at 1 µM ([4]; 25° C.): 123 ± 6%
- activity at 0.1 µM ([4]; 25° C.): 119 ± 6%
- activity at 1 µM ([4]; 37° C.): 224 ± 14%
- activity at 0.1 µM ([4]; 37° C.): 252 ± 13%
- mean pA2 value (95% confidence interval), Schild plot [2]: 7.27 (6.95-8.12)
- mean slope (±S.D.) of Schild plot [2]: 0.94 (0.21)

SMILES: c1ccc([C@@H]2CCC[C@@H]2N=C2CCCN2)cc1 (relative stereo) [Test Compound 16]
- pKi ([1]; 25° C.): 4.96

SMILES: C1CCNC(=NC2C3CC4CC(C3)CC2C4)CC1 (stereo not shown) [Test Compound 13, 2-(2-adamantanylimino)hexahydroazepine]
- pKi ([1]; 25° C.): 4.70
- pA2 [2]: 5.47

SMILES: Clc1ccc(C(N=C2CCCCCN2)c2ccc(Cl)cc2)cc1 [Test Compound 10, 2-[(p-chloro-α-[p-chlorophenyl]benzyl)imino]hexahydroazepine]
- pKi ([1]; 25° C.): 6.08
- pA2 [2]: 6.33

SMILES: COc1ccc([C@@H]2Sc3ccccc3N(CCN(C)C)C(=O)[C@@H]2OC(C)=O)cc1 [Test Compound 17, (1)-cis-5-2-(dimethylamino)etnyl]2,3-dihydro-3-hydroxy-2-(p-methoxyphenyl)-1,5-benzothiazepin-4(5H)-one acetate, reference compound]
- activity at 1 µM ([4]; 25° C.): 83 ± 8%
- activity at 0.1 µM ([4]; 25° C.): 96 ± 5%
- activity at 1 µM ([4]; 37° C.): 262 ± 10%
- activity at 0.1 µM ([4]; 37° C.): 218 ± 4%
- mean slope (±S.D.) of Schild plot [2]: 1.00 (0.15)
- effect on [^3 H]nitrendipine binding [3]: enhances binding

SMILES: c1ccc(-c2ccccc2N=C2CCCCCCCCCCCN2)cc1 [Test Compound 2, 2-(o-biphenylylimino)azacyclotridecane]
- activity at 1 µM ([4]; 25° C.): 123 ± 10%
- activity at 0.1 µM ([4]; 25° C.): 117 ± 7%
- activity at 1 µM ([4]; 37° C.): 152 ± 15%
- activity at 0.1 µM ([4]; 37° C.): 152 ± 9%
- mean pA2 value (95% confidence interval), Schild plot [2]: 6.59 (6.33-7.17)

SMILES: CCCC(CN=C1CCCCN1)(c1ccccc1)c1ccccc1 [Test Compound 23, 2-[(2,2-diphenylpentyl)imino]piperidine]
- pA2 ([2]; listed as 23): 6.04

SMILES: C1CCCCCNC(=NC2CC3CCC2C3)CCCCC1 (stereo not shown) [Test Compound 4, 2-(2-norbornylimino)azacyclotridecane]
- pKi ([1]; 25° C.): 5.92
- activity at 1 µM ([4]; 25° C.): 106 ± 4%
- activity at 0.1 µM ([4]; 25° C.): 105 ± 4%
- activity at 1 µM ([4]; 37° C.): 116 ± 8%
- activity at 0.1 µM ([4]; 37° C.): 108 ± 7%
- pA2 [2]: 6.07

SMILES: CCCC(CN=C1CCCCCCN1)(c1ccccc1)c1ccccc1 [Test Compound 5, 2-[(2,2-diphenylpentyl)imino]octahydroazocine]
- activity at 1 µM ([4]; 37° C.): 122 ± 3%
- activity at 0.1 µM ([4]; 37° C.): 111 ± 9%
- pA2 ([2]; listed as 5): 6.60

SMILES: c1ccc(C(CN=C2CCCCCN2)c2ccccc2)cc1 [Test Compound 21, hexahydro-2-(2,2-diphenylethylimino)azepine]
- pA2 [2]: 6.14
